In ChEMBL document CHEMBL3046293, “Fungicidal Activities of -Methoxyphenylacetic Acid Derivatives” (2002):

Key:
Type in all cases: functional
Podosphaera fuliginea [1] = assay: Fungicidal activity against Podosphaera fuliginea assessed as cucumber powdery mildew disease control at 31.3 ppm treated 24 hr before inoculation by preventive manner
Pyricularia oryzae [2] = assay: Fungicidal activity against Magnaporthe oryzae Cav. race 003 assessed as rice blast disease control at 500 ppm treated 24 hr before inoculation by preventive manner
Botrytis cinerea [3] = assay: Fungicidal activity against Botryotinia fuckeliana assessed as cucumber gray mold disease control at 500 ppm treated 24 hr before inoculation by preventive manner
Botrytis cinerea [4] = assay: Fungicidal activity against Botryotinia fuckeliana assessed as cucumber gray mold disease control at 7.8 ppm treated 24 hr before inoculation by preventive manner
Pyricularia oryzae [5] = assay: Fungicidal activity against Magnaporthe oryzae Cav. race 003 assessed as rice blast disease control at 31.3 ppm treated 24 hr before inoculation by preventive manner
Podosphaera fuliginea [6] = assay: Fungicidal activity against Podosphaera fuliginea assessed as cucumber powdery mildew disease control at 7.8 ppm treated 24 hr before inoculation by preventive manner
Pyricularia oryzae [7] = assay: Fungicidal activity against Magnaporthe oryzae Cav. race 003 assessed as rice blast disease control at 125 ppm treated 24 hr before inoculation by preventive manner
Pyricularia oryzae [8] = assay: Fungicidal activity against Magnaporthe oryzae Cav. race 003 assessed as rice blast disease control at 31.3 ppm foliar application for 24 hr before inoculation by preventive manner
Pyricularia oryzae [9] = assay: Fungicidal activity against Magnaporthe oryzae Cav. race 003 assessed as rice blast disease control at 2 ppm foliar application for 24 hr before inoculation by preventive manner
Pyricularia oryzae [10] = assay: Fungicidal activity against Magnaporthe oryzae Cav. race 003 assessed as rice blast disease control at 7.8 ppm foliar application for 24 hr before inoculation by preventive manner
Pyricularia oryzae [11] = assay: Fungicidal activity against Magnaporthe oryzae Cav. race 003 assessed as rice blast disease control at 125 ppm foliar application for 24 hr before inoculation by preventive manner
Podosphaera fuliginea [12] = assay: Fungicidal activity against Podosphaera fuliginea assessed as cucumber powdery mildew disease control at 125 ppm treated 24 hr before inoculation by preventive manner
Botrytis cinerea [13] = assay: Fungicidal activity against Botryotinia fuckeliana assessed as cucumber gray mold disease control at 2 ppm foliar application 24 hr after inoculation by curative manner
Botrytis cinerea [14] = assay: Fungicidal activity against Botryotinia fuckeliana assessed as cucumber gray mold disease control at 7.8 ppm foliar application 24 hr after inoculation by curative manner
Botrytis cinerea [15] = assay: Fungicidal activity against Botryotinia fuckeliana assessed as cucumber gray mold disease control at 31.3 ppm foliar application 24 hr before inoculation by preventive manner
Botrytis cinerea [16] = assay: Fungicidal activity against Botryotinia fuckeliana assessed as cucumber gray mold disease control at 125 ppm foliar application 24 hr after inoculation by curative manner
Botrytis cinerea [17] = assay: Fungicidal activity against Botryotinia fuckeliana assessed as cucumber gray mold disease control at 125 ppm foliar application 24 hr before inoculation by preventive manner
Botrytis cinerea [18] = assay: Fungicidal activity against Botryotinia fuckeliana assessed as cucumber gray mold disease control at 31.3 ppm foliar application 24 hr after inoculation by curative manner
Botrytis cinerea [19] = assay: Fungicidal activity against Botryotinia fuckeliana assessed as cucumber gray mold disease control at 2 ppm foliar application 24 hr before inoculation by preventive manner
Botrytis cinerea [20] = assay: Fungicidal activity against Botryotinia fuckeliana assessed as cucumber gray mold disease control at 7.8 ppm foliar application 24 hr before inoculation by preventive manner
Podosphaera fuliginea [21] = assay: Fungicidal activity against Podosphaera fuliginea assessed as cucumber powdery mildew control at 2 ppm foliar application 24 hr after inoculation by curative manner
Podosphaera fuliginea [22] = assay: Fungicidal activity against Podosphaera fuliginea assessed as cucumber powdery mildew control at 0.5 ppm foliar application 24 hr after inoculation by curative manner
Podosphaera fuliginea [23] = assay: Fungicidal activity against Podosphaera fuliginea assessed as cucumber powdery mildew control at 7.8 ppm foliar application 24 hr after inoculation by curative manner
Podosphaera fuliginea [24] = assay: Fungicidal activity against Podosphaera fuliginea assessed as cucumber powdery mildew control at 2 ppm foliar application 24 hr before inoculation by preventive manner
Podosphaera fuliginea [25] = assay: Fungicidal activity against Podosphaera fuliginea assessed as cucumber powdery mildew control at 7.8 ppm foliar application 24 hr before inoculation by preventive manner
Podosphaera fuliginea [26] = assay: Fungicidal activity against Podosphaera fuliginea assessed as cucumber powdery mildew control at 0.125 ppm foliar application 24 hr before inoculation by preventive manner
Podosphaera fuliginea [27] = assay: Fungicidal activity against Podosphaera fuliginea assessed as cucumber powdery mildew control at 0.125 ppm foliar application 24 hr after inoculation by curative manner
Podosphaera fuliginea [28] = assay: Fungicidal activity against Podosphaera fuliginea assessed as cucumber powdery mildew control at 0.5 ppm foliar application 24 hr before inoculation by preventive manner
Podosphaera fuliginea [29] = assay: Fungicidal activity against Podosphaera fuliginea assessed as cucumber powdery mildew disease control at 500 ppm treated 24 hr before inoculation by preventive manner
Thanatephorus cucumeris [30] = assay: Fungicidal activity against Thanatephorus cucumeris assessed as rice sheath blight disease control at 2 ppm foliar application for 24 hr after inoculation by curative manner
Thanatephorus cucumeris [31] = assay: Fungicidal activity against Thanatephorus cucumeris assessed as rice sheath blight disease control at 125 ppm foliar application for 24 hr after inoculation by curative manner
Thanatephorus cucumeris [32] = assay: Fungicidal activity against Thanatephorus cucumeris assessed as rice sheath blight disease control at 2 ppm foliar application for 24 hr before inoculation by preventive manner
Thanatephorus cucumeris [33] = assay: Fungicidal activity against Thanatephorus cucumeris assessed as rice sheath blight disease control at 125 ppm foliar application for 24 hr before inoculation by preventive manner
Thanatephorus cucumeris [34] = assay: Fungicidal activity against Thanatephorus cucumeris assessed as rice sheath blight disease control at 31.3 ppm foliar application for 24 hr before inoculation by preventive manner
Thanatephorus cucumeris [35] = assay: Fungicidal activity against Thanatephorus cucumeris assessed as rice sheath blight disease control at 31.3 ppm foliar application for 24 hr after inoculation by curative manner
Thanatephorus cucumeris [36] = assay: Fungicidal activity against Thanatephorus cucumeris assessed as rice sheath blight disease control at 7.8 ppm foliar application for 24 hr after inoculation by curative manner
Thanatephorus cucumeris [37] = assay: Fungicidal activity against Thanatephorus cucumeris assessed as rice sheath blight disease control at 7.8 ppm foliar application for 24 hr before inoculation by preventive manner

## CCCCOC(C(=O)NC)c1cccc(COc2cc(C)ccc2C)c1 (stereo not drawn)
Podosphaera fuliginea [1]
  Activity: 90%
Pyricularia oryzae [2]
  Activity: <90%
Botrytis cinerea [3]
  Activity: <50%

## CNC(=O)C(OC)c1cccc(COc2cc(C)cc(C)c2C)c1 (stereo not drawn)
Botrytis cinerea [4]
  Activity: 50%
Pyricularia oryzae [5]
  Activity: 90%
Podosphaera fuliginea [6]
  Activity: 90%

## CNC(=O)C(OC)c1cccc(COc2cccc(C)c2C)c1 (stereo not drawn)
Pyricularia oryzae [7]
  Activity: 90%
Botrytis cinerea [4]
  Activity: 50%
Podosphaera fuliginea [6]
  Activity: 90%

## C/C(=N/Nc1nc(C)cc(C)n1)c1ccccc1C [FERIMZONE]
Pyricularia oryzae [8]
  Activity: 90%
Pyricularia oryzae [9]
  Activity: 30%
Pyricularia oryzae [10]
  Activity: 50%
Pyricularia oryzae [11]
  Activity: 97%

## CNC(=O)C(OC)c1cccc(COc2ccccc2F)c1 (stereo not drawn)
Podosphaera fuliginea [1]
  Activity: 90%
Pyricularia oryzae [2]
  Activity: 90%
Botrytis cinerea [3]
  Activity: 50%

## CNC(=O)C(OC)c1cccc(COc2ccc(C)cc2C)c1 (stereo not drawn)
Botrytis cinerea [4]
  Activity: 50%
Pyricularia oryzae [5]
  Activity: 90%
Podosphaera fuliginea [6]
  Activity: 90%

## CNC(=O)C(OC)c1cccc(COc2cc(Cl)cc(Cl)c2)c1 (stereo not drawn)
Podosphaera fuliginea [1]
  Activity: 90%
Pyricularia oryzae [2]
  Activity: <90%
Botrytis cinerea [3]
  Activity: <50%

## COC(=O)C(OC)c1cccc(COc2ccccc2C)c1 (stereo not drawn)
Pyricularia oryzae [7]
  Activity: 90%
Podosphaera fuliginea [12]
  Activity: 90%
Botrytis cinerea [3]
  Activity: 50%

## CC(C)NC(=O)N1CC(=O)N(c2cc(Cl)cc(Cl)c2)C1=O [IPRODIONE]
Botrytis cinerea [13]
  Activity: 20%
Botrytis cinerea [14]
  Activity: 60%
Botrytis cinerea [15]
  Activity: 100%
Botrytis cinerea [16]
  Activity: 80%
Botrytis cinerea [17]
  Activity: 100%
Botrytis cinerea [18]
  Activity: 70%
Botrytis cinerea [19]
  Activity: 20%
Botrytis cinerea [20]
  Activity: 50%

## CNC(=O)C(OC)c1cccc(COc2ccc(Cl)cc2)c1 (stereo not drawn)
Podosphaera fuliginea [1]
  Activity: 90%
Pyricularia oryzae [2]
  Activity: <90%
Botrytis cinerea [3]
  Activity: <50%

## OC(c1ccc(Cl)cc1)(c1cncnc1)c1ccccc1Cl (stereo not drawn) [FENARIMOL]
Podosphaera fuliginea [21]
  Activity: 99%
Podosphaera fuliginea [22]
  Activity: 99%
Podosphaera fuliginea [23]
  Activity: 100%
Podosphaera fuliginea [24]
  Activity: 95%
Podosphaera fuliginea [25]
  Activity: 100%
Podosphaera fuliginea [26]
  Activity: 0%
Podosphaera fuliginea [27]
  Activity: 80%
Podosphaera fuliginea [28]
  Activity: 80%

## COC(=O)C(OC)c1cccc(COc2ccccc2Cl)c1 (stereo not drawn)
Pyricularia oryzae [7]
  Activity: 90%
Podosphaera fuliginea [12]
  Activity: 90%
Botrytis cinerea [3]
  Activity: 50%

## CNC(=O)C(OC)c1cccc(COc2ccc(Cl)cc2C)c1 (stereo not drawn)
Pyricularia oryzae [7]
  Activity: 90%
Botrytis cinerea [4]
  Activity: 50%
Podosphaera fuliginea [6]
  Activity: 90%

## COC(=O)C(OC)c1cccc(COc2cccc(C)c2)c1 (stereo not drawn)
Pyricularia oryzae [2]
  Activity: <90%
Podosphaera fuliginea [12]
  Activity: 90%
Botrytis cinerea [3]
  Activity: <50%

## COC(=O)C(OC)c1cccc(COc2cc(C)ccc2C)c1 (stereo not drawn)
Pyricularia oryzae [7]
  Activity: 90%
Podosphaera fuliginea [29]
  Activity: <90%
Botrytis cinerea [3]
  Activity: 50%

## COC(=O)C(OC)c1cccc(COc2ccccc2)c1 (stereo not drawn)
Pyricularia oryzae [2]
  Activity: <90%
Podosphaera fuliginea [12]
  Activity: 90%
Botrytis cinerea [3]
  Activity: <50%

## COC(C(N)=O)c1cccc(COc2cc(C)ccc2C)c1 (stereo not drawn)
Podosphaera fuliginea [1]
  Activity: 90%
Pyricularia oryzae [2]
  Activity: 90%
Botrytis cinerea [3]
  Activity: <50%

## CNC(=O)C(OC)c1cccc(Oc2cc(C)cc(C)c2)c1 (stereo not drawn)
Podosphaera fuliginea [1]
  Activity: 90%
Pyricularia oryzae [2]
  Activity: <90%
Botrytis cinerea [3]
  Activity: <50%

## CNC(=O)C(OC)c1cccc(COc2ccccc2C)c1 (stereo not drawn)
Botrytis cinerea [4]
  Activity: 50%
Pyricularia oryzae [2]
  Activity: 90%
Podosphaera fuliginea [6]
  Activity: 90%

## CC(C)Oc1cccc(NC(=O)c2ccccc2C(F)(F)F)c1 [FLUTOLANIL]
Thanatephorus cucumeris [30]
  Activity: 40%
Thanatephorus cucumeris [31]
  Activity: 80%
Thanatephorus cucumeris [32]
  Activity: 20%
Thanatephorus cucumeris [33]
  Activity: 90%
Thanatephorus cucumeris [34]
  Activity: 80%
Thanatephorus cucumeris [35]
  Activity: 80%
Thanatephorus cucumeris [36]
  Activity: 70%
Thanatephorus cucumeris [37]
  Activity: 70%

## CNC(=O)C(OC)c1cccc(COc2ccc(C)cc2)c1 (stereo not drawn)
Podosphaera fuliginea [1]
  Activity: 90%
Pyricularia oryzae [2]
  Activity: 90%
Botrytis cinerea [3]
  Activity: <50%

## CNC(=O)C(OC)c1cccc(COc2ccc(C)cc2Cl)c1 (stereo not drawn)
Pyricularia oryzae [7]
  Activity: 90%
Podosphaera fuliginea [6]
  Activity: 90%
Botrytis cinerea [3]
  Activity: 50%

## CNC(=O)C(OC)c1cccc(COc2cccc(Cl)c2)c1 (stereo not drawn)
Podosphaera fuliginea [1]
  Activity: 90%
Pyricularia oryzae [2]
  Activity: <90%
Botrytis cinerea [3]
  Activity: 50%

## COC(C(=O)N(C)C)c1cccc(COc2cc(C)ccc2C)c1 (stereo not drawn)
Pyricularia oryzae [2]
  Activity: 90%
Podosphaera fuliginea [12]
  Activity: 90%
Botrytis cinerea [3]
  Activity: <50%

## CNC(=O)C(OC)c1cccc(Oc2ccc(C)c(C)c2)c1 (stereo not drawn)
Pyricularia oryzae [2]
  Activity: <90%
Podosphaera fuliginea [12]
  Activity: 90%
Botrytis cinerea [3]
  Activity: <50%

## CNC(=O)C(OC)c1cccc(COc2cccc(C)c2)c1 (stereo not drawn)
Pyricularia oryzae [2]
  Activity: 90%
Podosphaera fuliginea [12]
  Activity: 90%
Botrytis cinerea [3]
  Activity: <50%

## CNC(=O)C(OC)c1cccc(COc2ccc(C)c(C)c2)c1 (stereo not drawn)
Podosphaera fuliginea [1]
  Activity: 90%
Pyricularia oryzae [7]
  Activity: 90%
Botrytis cinerea [3]
  Activity: 50%

## CCc1ccccc1OCc1cccc(C(OC)C(=O)NC)c1 (stereo not drawn)
Pyricularia oryzae [7]
  Activity: 90%
Podosphaera fuliginea [6]
  Activity: 90%
Botrytis cinerea [3]
  Activity: 50%

## CNC(=O)C(OC)c1cccc(COc2cc(C)ccc2Cl)c1 (stereo not drawn)
Pyricularia oryzae [7]
  Activity: 90%
Botrytis cinerea [4]
  Activity: 50%
Podosphaera fuliginea [6]
  Activity: 90%
